# Measurements from PMC11042500 (Journal of medicinal chemistry, 2020).
# Like-named read-outs stand apart in the source and are kept apart here.
# Columns and labels:
# L6 rat myoblast cells = test: Oxygen consumption rate; conditions: for uncoupling activity (in words): OCR in L6 rat myoblast cells
# STAM mouse model of NASH [1] = conditions: STZ-induced mouse model of NASH; cited from earlier work
# STAM mouse model of NASH [2] = test: STAM; format: in vivo, mice; conditions: SHS4121705 25 mg kg−1 d−1 in food
# [3] = Core body temperature after acute oral dose; format: in vivo; conditions: acute oral dose 5, 20, 50 mg/kg, up to 4 h, C57BL/6 male mice; listed as SHS4121705
# [4] = use in humans; cited from earlier work
smiles,measurement,setting,value
"Oc1nccnc1Nc1ccc(-c2ccc(F)cc2)cc1 [16h, 3-((4′-Fluoro-[1,1′-biphenyl]-4-yl)amino)pyrazin-2-ol]",uncoupling activity (in words),L6 rat myoblast cells,inactive
"Oc1nccnc1Nc1ccccc1F [16a, 3-((2-Fluorophenyl)amino)pyrazin-2-ol]",uncoupling activity (in words),L6 rat myoblast cells,inactive
"CCCCCCCCCCc1ccc(Nc2nccnc2O)cc1 [16b, 3-((4-Decylphenyl)amino)pyrazin-2-ol]",uncoupling activity (in words),L6 rat myoblast cells,inactive
"Oc1nc2nonc2nc1Nc1ccccc1F [12a, 6-((2-Fluorophenyl)amino)-[1,2,5]oxadiazolo[3,4-b]pyrazin-5-ol]",loss of potency,L6 rat myoblast cells; OCR EC50 of 12a compared with parent diamine uncoupler,40 ×
Fc1cccc(Nc2nc3nonc3nc2Nc2ccccc2F)c1 [compound 9],fibrosis score,STAM mouse model of NASH [1],reduced
same,inflammation score,STAM mouse model of NASH [1],reduced
same,liver triglyceride levels,STAM mouse model of NASH [1],lowered
"COc1nc2nonc2nc1Nc1ccc(OC(F)(F)F)cc1 [compound 13, 6-Methoxy-N-(4-(trifluoromethoxy)phenyl)-[1,2,5]oxadiazolo[3,4-b]pyrazin-5-amine]",uncoupling activity (in words),L6 rat myoblast cells,significantly abrogated
"CN(c1ccccc1F)c1nc2nonc2nc1O [12ae, 6-((2-Fluorophenyl)(methyl)amino)-[1,2,5]oxadiazolo[3,4-b]pyrazin-5-ol]",uncoupling activity (in words),L6 rat myoblast cells,completely devoid of uncoupling activity
"Oc1nc2nonc2nc1Nc1ccc(OC(F)(F)F)cc1 [12i, 6-((4-(Trifluoromethoxy)phenyl)amino)-[1,2,5]oxadiazolo[3,4-b]pyrazin-5-ol]",ballooning score,STAM mouse model of NASH [2]; 21 days,0.25 ± 0.16
same,inflammation score,STAM mouse model of NASH [2]; 21 days,2.38 ± 0.18
same,steatosis score,STAM mouse model of NASH [2]; 21 days,0 ± 0
same,NAS score (NAFLD activity score),"STAM mouse model of NASH [2]; liver, day 21",2.63 ± 0.18
same,effect on core body temperature,[3],no effect
"Oc1nc2nonc2nc1Nc1ccc(C(F)(F)F)c(F)c1 [12v, 6-((3-Fluoro-4-(trifluoromethyl)phenyl)amino)-[1,2,5]oxadiazolo[3,4-b]pyrazin-5-ol]",fold less potent than 12i,L6 rat myoblast cells; OCR EC50 relative to 12i,> 2 fold
"O=[N+]([O-])c1ccc(O)c([N+](=O)[O-])c1 [DNP, 2,4-dinitrophenol]",increase in metabolism,[4],> 50%
"COc1cccc(-c2ccc(Nc3nccnc3O)cc2)c1 [16g, 3-((3′-Methoxy-[1,1′-biphenyl]-4-yl)amino)pyrazin-2-ol]",uncoupling activity (in words),L6 rat myoblast cells,inactive
